Data published in patent US9428439B2, “Hydrobenzamide derivatives as inhibitors of Hsp90” (priority 2006, dated 2016).
pIC50, pKd: −log10 of the molar value.

Key:
hERG = hERG (Homo sapiens, UniProt Q12809); assay: hERG activity
[1] = target: T1, human Hsp90α N-terminal domain (Homo sapiens, UniProt P07900); assay: Isothermal titration calorimetry (ITC); assay type: binding
T1 construct: purification of the Human Hsp90α N-terminal domain were performed according to published methods; made in house
Description: The ability of the compounds of the invention to bind to human Hsp90 proteins was determined using isothermal titration calorimetry. Isothermal titration calorimetry (ITC) experiments were performed with a VP-ITC titration calorimeter (Microcal Inc., Northampton, Mass., USA). Cloning, expression, and purification of the Human Hsp90α N-terminal domain were performed according to published methods (Jez, J. M. et al, Chem. […] All solutions were filtered and degassed prior to a titration being carried out. The enthalpy change resulting from each injection of ligand was obtained through integration of the calorimetric signal. Data were analysed using Origin 7.0 (Microcal Software Inc., Northampton, Mass.). Heats of dilution were estimated using the final injections of each individual titration and subtracted before data fitting. […] For weakly binding compounds a low c-value ITC method was used (Turnbull […]. Am. Chem. Soc. 2003 Dec. 3; 125(48):14859-66) in which the protein was present at 10-20 μM in the calorimetric cell and the compound concentration was 1-20 mM in the injection syringe. In this type of experiment the stoichiometry parameter (N) was locked at 1 for data fitting. […] In rare cases where compound solubility was limiting, the compound solution was placed in the calorimetric cell and titrated with protein from the injection syringe, maintaining a c-value between 5 and 1000. […]

[2] = test system: human colon cancer cell line HCT116; assay: Anti-proliferative activity (Alamar Blue assay); assay type: cell-based; conditions: HCT-116
Description: The anti-proliferative activities of compounds of the invention can be determined by measuring the ability of the compounds to inhibition of cell growth in a number of cell lines such as the human colon cancer cell line HCT116. Inhibition of cell growth is measured using the Alamar Blue assay (Nociari, M. M, Shalev, A., Benias, P., Russo, C. Journal of Immunological Methods 1998, 213, 157-167). The method is based on the ability of viable cells to reduce resazurin to its fluorescent product resorufin. For each proliferation assay cells are plated onto 96 well plates and allowed to recover for 16 hours prior to the addition of inhibitor compounds for a further 72 hours. At the end of the incubation period 10% (v/v) Alamar Blue is added and incubated for a further 6 hours prior to determination of fluorescent product at […]. In the case of the non-proliferating cell assay cells are maintained at confluence for 96 hour prior to the addition of inhibitor compounds for a further 72 hours. The number of viable cells is determined by Alamar Blue assay as before. Cell lines can be obtained from the ECACC (European Collection of cell Cultures).

Sequence of hERG (Q12809 whole entry, the tested form may be a part): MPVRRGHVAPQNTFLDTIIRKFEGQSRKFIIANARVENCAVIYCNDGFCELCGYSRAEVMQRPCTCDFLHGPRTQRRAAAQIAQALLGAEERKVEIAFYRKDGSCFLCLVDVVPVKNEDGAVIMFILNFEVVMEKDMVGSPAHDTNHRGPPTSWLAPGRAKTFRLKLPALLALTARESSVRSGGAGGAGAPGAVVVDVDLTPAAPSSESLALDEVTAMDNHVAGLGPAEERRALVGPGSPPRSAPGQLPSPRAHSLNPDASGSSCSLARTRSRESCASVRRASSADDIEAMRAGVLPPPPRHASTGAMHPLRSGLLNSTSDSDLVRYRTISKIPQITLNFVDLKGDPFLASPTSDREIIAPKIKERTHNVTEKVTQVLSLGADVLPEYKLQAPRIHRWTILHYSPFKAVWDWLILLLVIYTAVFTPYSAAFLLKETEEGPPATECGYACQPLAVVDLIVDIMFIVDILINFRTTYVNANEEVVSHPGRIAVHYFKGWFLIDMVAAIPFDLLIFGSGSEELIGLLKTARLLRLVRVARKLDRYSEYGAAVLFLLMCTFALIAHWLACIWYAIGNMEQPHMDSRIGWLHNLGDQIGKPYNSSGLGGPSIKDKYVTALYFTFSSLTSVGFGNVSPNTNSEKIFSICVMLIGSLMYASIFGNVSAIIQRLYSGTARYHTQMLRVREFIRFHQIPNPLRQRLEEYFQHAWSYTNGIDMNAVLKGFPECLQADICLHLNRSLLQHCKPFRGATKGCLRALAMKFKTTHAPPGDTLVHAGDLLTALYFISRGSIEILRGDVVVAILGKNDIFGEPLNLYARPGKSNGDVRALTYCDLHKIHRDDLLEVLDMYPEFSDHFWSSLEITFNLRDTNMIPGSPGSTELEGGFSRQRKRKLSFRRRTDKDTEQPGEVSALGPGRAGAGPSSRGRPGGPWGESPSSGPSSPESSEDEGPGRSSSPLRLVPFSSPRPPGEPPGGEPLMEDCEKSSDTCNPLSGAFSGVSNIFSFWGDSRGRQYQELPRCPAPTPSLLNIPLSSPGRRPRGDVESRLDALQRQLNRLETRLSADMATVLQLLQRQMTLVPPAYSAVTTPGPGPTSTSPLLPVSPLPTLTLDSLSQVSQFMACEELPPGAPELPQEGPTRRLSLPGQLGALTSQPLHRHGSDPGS

pKd [1]: > 7.00
pIC50 [2]: > 7.00
Compound: CC(C)c1cc(C(=O)N2Cc3ccc(CN4CCN(C)CC4)cc3C2)c(O)cc1O [Compound (1), (2,4-dihydroxy-5-isopropyl-phenyl)-[5-(4-methyl-piperazin-1-ylmethyl)-1,3-dihydro-isoindol-2-yl]-methanone]
hERG activity (hERG): low hERG activity
mean IC50 value against hERG relative to the IC50 values of the compound in cellular proliferation assays (hERG): greater than 30 times
pIC50 (hERG; read-out: mean IC50 value against hERG): < 4.82
